Measured values as given in publication PMC9299503, “Catalytic Control of Spiroketal Formation in Rubromycin Polyketide Biosynthesis” (Angewandte Chemie (International Ed. in English), 2021).

Columns and labels:
GrhO5 [1] = biological target: T1, GrhO5 (Streptomyces sp. JP95, UniProt Q8KSX7); assay: X-ray crystal structure, […] Å; assay type: binding; settings: ligand-free acceptor state, FAD in OUT
T1 construct: crystallised; domains I-III, residues 1-537 described; construct details only in supplement
T1 sequence (Q8KSX7 1-537): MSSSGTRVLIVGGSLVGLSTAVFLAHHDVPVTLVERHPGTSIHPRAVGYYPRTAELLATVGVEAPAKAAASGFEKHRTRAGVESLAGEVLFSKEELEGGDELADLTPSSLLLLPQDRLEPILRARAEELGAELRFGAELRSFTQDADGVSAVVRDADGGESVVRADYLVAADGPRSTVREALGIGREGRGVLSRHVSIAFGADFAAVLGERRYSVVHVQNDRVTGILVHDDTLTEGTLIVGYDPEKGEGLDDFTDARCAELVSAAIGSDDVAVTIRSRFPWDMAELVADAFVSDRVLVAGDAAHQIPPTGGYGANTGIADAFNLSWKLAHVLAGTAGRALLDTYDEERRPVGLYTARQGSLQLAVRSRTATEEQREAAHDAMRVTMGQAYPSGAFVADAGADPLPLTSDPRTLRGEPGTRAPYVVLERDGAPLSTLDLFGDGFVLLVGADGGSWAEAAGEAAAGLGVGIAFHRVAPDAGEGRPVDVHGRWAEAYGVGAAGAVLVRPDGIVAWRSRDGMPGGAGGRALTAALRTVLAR

GrhO5 [2] = biological target: T1, GrhO5; assay: X-ray crystal structure, crystals soaked with […]; assay type: binding; settings: FAD in OUT, reducible state; bound ligand may be 3 or its reduced form 5 (dihydrocollinone)

SMILES	X-ray crystal structure, 1.75 Å (GrhO5 [1])	X-ray crystal structure, crystals soaked with 3 (GrhO5 [2])
Cc1cc2nc3c(=O)[nH]c(=O)nc-3n(C[C@H](O)[C@H](O)[C@H](O)COP(=O)(O)OP(=O)(O)OC[C@H]3O[C@@H](n4cnc5c(N)ncnc54)[C@H](O)[C@@H]3O)c2cc1C [FAD]	domains I and II are essential for FAD‐ and substrate binding, respectively	
COc1cc(=O)c2c(=O)c3c(c(=O)c=2c1=O)=C(O)[C@@]1(O)c2c(cc4cc(C)oc(=O)c4c2O)CC[C@@]1(O)C=3O [compound 3, collinone]		revealed clear electron density in the open, solvent‐exposed substrate‐binding site
